{"source": "patent US20260144882A1", "about": "“ANTI-NECTIN-4 ANTIBODY DRUG CONJUGATE AND USE THEREOF” (Bio-Thera Solutions, Ltd., priority 2022, published 2026)", "key": {"[1]": {"target": "T1, hNectin-4-His (human Nectin-4 extracellular antigen) (Homo sapiens, UniProt Q96NY8)", "T1 construct": "made in house", "T1 sequence (Q96NY8 with tags, fused parts or gaps)": "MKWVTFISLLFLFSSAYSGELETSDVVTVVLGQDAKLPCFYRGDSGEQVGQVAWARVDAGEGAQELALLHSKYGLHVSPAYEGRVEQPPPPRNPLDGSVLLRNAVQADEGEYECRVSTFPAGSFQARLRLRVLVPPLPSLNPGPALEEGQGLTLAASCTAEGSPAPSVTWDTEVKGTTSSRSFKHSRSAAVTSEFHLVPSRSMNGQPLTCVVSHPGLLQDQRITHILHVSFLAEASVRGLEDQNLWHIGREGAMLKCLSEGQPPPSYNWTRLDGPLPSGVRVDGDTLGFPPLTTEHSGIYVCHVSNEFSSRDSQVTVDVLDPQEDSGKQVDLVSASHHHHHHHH", "experiment": "SPR (BIAcore) affinity assay", "type": "binding", "experimental": "In this study, the affinity of the antibodies for the human Nectin-4 extracellular antigen was detected by surface plasmon resonance (SPR) technique (BIAcore: GE Healthcare, T200).\nCapture was performed using a Protein A chip (Cat #29127556, GE Healthcare), and 5 µg/mL antibody dilutions (in HBS-EP+(10×): GE Healthcare, Cat #BR-1006-69, with a working concentration of 1×) were directed through the experimental flow channels (Fc2 and Fc4) at a flow rate of 10 μL/min for 10 s; then, the flow rate was adjusted to 30 μL/min, the hNectin-4-His dilutions at different concentrations (0 nM, 1.23 nM, 3.7 nM, 11.1 nM, 33.3 nM, and 100 nM) were sequentially added, and simultaneously directed through the surfaces of the experimental flow channels (Fc2 and Fc4) and reference flow channels (Fc1 and Fc3) with an association time of 120 s and a dissociation time of 180 s, and finally, the chip was regenerated in Glycine 1.5."}, "T-47D cells": {"tested_on": "T-47D cells", "experiment": "Endocytosis efficiency assay by FACS", "type": "cell-based, human", "experimental": "In this assay, the relative amount of antibodies remaining on the cell surface after co-incubation at 37° C. for a certain period of time was detected by FACS to reflect the endocytosis efficiency. The procedures are briefly described as follows: T-47D cells (human ductal breast cancer cells, derived from the Cell Bank of Chinese Academy of Sciences, Cat.No. TCHu 87); the antibodies of interest were adjusted to 10 µg/mL and co-incubated with the cells on ice for 1 h; the cells were washed 3 times with pre-cooled PBS, and then placed at 37° C. and incubated for 0 h, 2 h and 4 h; 0.2% N3Na was added to stop the endocytosis reaction; the cells were washed with PBS thrice, followed by the addition of the PE-labeled anti-human Fc secondary antibody (Invitrogen 12-4998-82); the cells were incubated at 4° C. for 30 min; the red fluorescence signal was detected on a flow cytometer."}, "mouse mNectin-4 protein": {"target": "T2, mouse mNectin-4 protein (Mus musculus, UniProt Q8R007)", "T2 construct": "purchased ACRO NE4-M52H3", "T2 sequence (Q8R007 31-508)": "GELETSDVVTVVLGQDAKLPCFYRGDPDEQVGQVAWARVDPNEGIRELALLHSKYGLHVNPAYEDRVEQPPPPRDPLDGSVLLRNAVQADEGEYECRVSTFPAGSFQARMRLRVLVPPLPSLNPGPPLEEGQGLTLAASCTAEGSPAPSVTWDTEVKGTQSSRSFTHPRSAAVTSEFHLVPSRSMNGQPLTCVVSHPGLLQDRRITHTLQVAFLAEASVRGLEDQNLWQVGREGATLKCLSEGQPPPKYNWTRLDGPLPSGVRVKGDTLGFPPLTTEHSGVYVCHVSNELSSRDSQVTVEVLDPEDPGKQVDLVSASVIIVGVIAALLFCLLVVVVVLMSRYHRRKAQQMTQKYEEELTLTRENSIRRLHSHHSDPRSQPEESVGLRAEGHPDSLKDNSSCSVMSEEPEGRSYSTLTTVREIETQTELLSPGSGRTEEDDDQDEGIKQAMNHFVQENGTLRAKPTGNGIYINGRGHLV", "experiment": "Species specificity ELISA, mouse Nectin-4", "type": "binding", "conditions": "in words", "experimental": "The binding of different antibodies to different species of Nectin-4 proteins was detected by ELISA. hNectin-4-His, monkey cNectin-4 protein (ACRO, NE4-C52H4) and mouse mNectin-4 protein (ACRO, NE4-M52H3) were immobilized; antibodies ASG-22, 1F3, 1G8, 3A10, and 10F4 were serially diluted, and HRP-labeled anti-human-Kappa secondary antibody was added for chromogenic reaction."}}, "note": "Where “and” joins values, the source holds several entries; their conditions need not be identical. Equal entries are not always repeated.", "data": [{"substance": "ASG-22: reference antibody; heavy chain SEQ ID NO: 5, light chain SEQ ID NO: 6 [reference compound]", "values": [{"measurement": "Ka", "setting": "[1]; Table 12, association rate", "value": 723000, "unit": "M⁻¹ s⁻¹"}, {"measurement": "Kd", "setting": "[1]; Table 12, dissociation rate", "value": 0.00436, "unit": "s⁻¹"}, {"measurement": "ka", "setting": "[1]; Table 13", "value": "577000 M⁻¹ s⁻¹ and 540000 M⁻¹ s⁻¹"}, {"measurement": "kd", "setting": "[1]; Table 13", "value": "0.00581 s⁻¹ and 0.0059 s⁻¹"}, {"measurement": "Endocytosis rate at 2 h", "setting": "T-47D cells; Table 14", "value": 49.8, "unit": "%"}, {"measurement": "Endocytosis rate at 4 h", "setting": "T-47D cells; Table 14", "value": 74.1, "unit": "%"}, {"measurement": "MFI (mean fluorescence intensity) 2 h", "setting": "T-47D cells; Table 14, 37° C.", "value": 53739.06}, {"measurement": "MFI (mean fluorescence intensity) 4 h", "setting": "T-47D cells; Table 14, 37° C.", "value": 27694.23}, {"measurement": "Endocytosis rate at 2 h", "setting": "T-47D cells; Table 15", "value": 35.2, "unit": "%"}, {"measurement": "Endocytosis rate at 4 h", "setting": "T-47D cells; Table 15", "value": 35.4, "unit": "%"}, {"measurement": "MFI (mean fluorescence intensity) 0 h", "setting": "T-47D cells; Table 15, 37° C., 0 h", "value": "58,591.2"}, {"measurement": "MFI (mean fluorescence intensity) 2 h", "setting": "T-47D cells; Table 15, 37° C.", "value": "37,973.0"}, {"measurement": "MFI (mean fluorescence intensity) 4 h", "setting": "T-47D cells; Table 15, 37° C.", "value": "37,844.0"}, {"measurement": "binding to mouse Nectin-4", "setting": "mouse mNectin-4 protein", "value": "weak binding"}]}]}
